Columns and labels:
Type in all cases: cell-based
[1] = tested on: Staphylococcus aureus (MRSA) ATCC 33591; test: MIC against MRSA, microbroth dilution; conditions: MIC class
Experimental: (§1) Testing was conducted to determine the in vitro antimicrobial activity of a series of compounds synthesised by Alchemia Pty Ltd. The antimicrobial activity of each compound was determined at a single concentration (128 μg/mL) in Mueller Hinton (MH) broth against the ATCC type strain of Staphylococcus aureus. […] Compounds showing activity at concentrations up to 32-64 μg/mL in the presence/absence of serum were then tested for MIC activity against a standard set of 5 microorganisms comprising of ATCC type strains of MRSA, Enterococcus faecalis, Enterococcus faecium, VRE and Escherichia coli. CLSI (formerly NCCLS) microbroth dilution technique was used.
(§2) Each compound is initially dissolved in 100 μL of DMSO. Each solution is then diluted further in 0.9 mL of sterile MH broth to give a total volume of 1 mL (1000 μg/mL) This stock solution is then further diluted in MH broth to give a test solution with final concentration of 128 μg/mL using the following formula: 0.5 ml stock in 3.4 ml MH broth
(§3) Each test organism was subcultured from the −70° C. deep freezer onto horse blood agar. The plates were streaked to obtain isolated colonies and incubated at 35° C. in non-CO2 incubator for 24 hours. A second subculture was carried out onto horse blood agar. For each test organism, 1-2 colonies were selected from an 18-24 hour culture and inoculated into 2 ml sterile MH broth. The turbidity was adjusted to 0.5 McFarland standard.
(§4) A 1:10 dilution in MH broth (200 μL in 2 ml MH) of the 0.5 McFarland control was prepared. 5 μL of this diluted solution was used to inoculate the trays.
(§5) The trays were prepared in a similar way as mentioned above and incubated at 35° C. in a non-CO2 incubator for 18-24 hours. The plates were examined for growth after the incubation time.
(§6) After 18-24 hour incubation 5 μL from each well was then inoculated onto horse blood agar and incubated for 18-24 hours at 35° C. in a non-CO2 incubator.
(§7) If the test organism is sensitive to the compound in the broth the growth will be inhibited. Similarly, if the organism grows on the antibiotic containing medium then it is resistant to this particular antibiotic.

[2] = tested on: Enterococcus faecium ATCC 35667; test: MIC against E. faecium, microbroth dilution; conditions: MIC class
Experimental: as §1, §2, §3, §4, §5, §6, §7

E. Faecium 51299 VanB = test: MIC against vancomycin-resistant enterococcus 51299 (VanB), microbroth dilution; conditions: MIC class; ATCC 51299 VanB
Experimental: as §1, §2, §3, §4, §5, §6, §7

[3] = tested on: Staphylococcus aureus ATCC 25923; test: MIC against S. aureus, microbroth dilution in MH broth, without or with 5% horse serum; conditions: MIC class; S. aureus ATCC 25923
Experimental: as §1, §2, §3, §4
100 μL of sterile MH broth was added in columns 2-12. 200 μL of test solution was added in column 1. 100 μL was transferred in column 2 giving a ½ dilution. 100 μL from column 2 was then transferred to column 3 (¼ dilution). This dilution was carried on until column 12. A second tray containing the same test solution was inoculated in a similar manner using sterile MH broth with 5% heat inactivated horse serum. 5 μL of organism solution was then added to each well. The plates were then sealed and incubated at 35° C. in a non-CO2 incubator for 18-24 hours. The plates were examined for growth after the incubation time.
as §7

[4] = tested on: Enterococcus faecalis ATCC 29212; test: MIC against E. faecalis, microbroth dilution; conditions: MIC class
Experimental: as §1, §2, §3, §4, §5, §6, §7

Row | Structure (SMILES) | S. Aureus 33591 MRSA activity [1] | E. Faecium 35667 activity [2] | E. Faecium 51299 VanB activity (E. Faecium 51299 VanB) | S. Aureus 25923 activity [3] | E. Fecalis 29212 activity [4]
1 | Nc1cc(C(F)(F)F)cc(Cl)c1NC1COC(CO)C(NC(=O)c2ccc(-c3ccccc3)cc2)C1O (stereo not shown) [Compound 200] | + (“+”: MIC (μg/mL): 64 ≧ MIC > 16) | − (“−”: MIC (μg/mL): MIC > 64) | − (“−”: MIC (μg/mL): MIC > 64) | − (“−”: MIC (μg/mL): MIC > 64) | − (“−”: MIC (μg/mL): MIC > 64)
2 | CCCCCC(C)CCC(=O)NC1C(CO)OCC(n2c(O)nc3cc(C(F)(F)F)cc(Cl)c32)C1O (stereo not shown) [Compound 177] | + (“+”: MIC (μg/mL): 64 ≧ MIC > 16) | + (“+”: MIC (μg/mL): 64 ≧ MIC > 16) | − (“−”: MIC (μg/mL): MIC > 64) | + (“+”: MIC (μg/mL): 64 ≧ MIC > 16) | − (“−”: MIC (μg/mL): MIC > 64)
3 | O=C(NC1C(CO)OCC(n2c(O)nc3cc(C(F)(F)F)cc(Cl)c32)C1O)c1ccc(-c2ccccc2)cc1 (stereo not shown) [Compound 153] | + (“+”: MIC (μg/mL): 64 ≧ MIC > 16) | − (“−”: MIC (μg/mL): MIC > 64) | − (“−”: MIC (μg/mL): MIC > 64) | + (“+”: MIC (μg/mL): 64 ≧ MIC > 16) | + (“+”: MIC (μg/mL): 64 ≧ MIC > 16)
4 | O=C(Nc1ccc(Cl)c(C(F)(F)F)c1)NC1COC(CO)C(n2c(NCc3cccc(Oc4ccccc4)c3)nc3cc(C(F)(F)F)ccc32)C1O (stereo not shown) [Compound 249] | ++ (“++”: MIC (μg/mL): MIC ≦ 16) | ++ (“++”: MIC (μg/mL): MIC ≦ 16) | ++ (“++”: MIC (μg/mL): MIC ≦ 16) | ++ (“++”: MIC (μg/mL): MIC ≦ 16) | ++ (“++”: MIC (μg/mL): MIC ≦ 16)
5 | Nc1ccccc1OC1C(NC(=O)Nc2ccc(Cl)c(C(F)(F)F)c2)COC(CO)C1NC(=O)C(N)Cc1ccc(-c2ccccc2)cc1 (single isomer, unassigned) [Compound 70] | ++ (“++”: MIC (μg/mL): MIC ≦ 16) | + (“+”: MIC (μg/mL): 64 ≧ MIC > 16) | − (“−”: MIC (μg/mL): MIC > 64) | + (“+”: MIC (μg/mL): 64 ≧ MIC > 16) | + (“+”: MIC (μg/mL): 64 ≧ MIC > 16)
6 | O=C(Nc1ccc(Cl)c(C(F)(F)F)c1)NC1COC(CO)C(n2c(Nc3ccc(C(F)(F)F)cc3)nc3cc(C(F)(F)F)cc(Cl)c32)C1O (stereo not shown) [Compound 253] | − (“−”: MIC (μg/mL): MIC > 64) | − (“−”: MIC (μg/mL): MIC > 64) | − (“−”: MIC (μg/mL): MIC > 64) | − (“−”: MIC (μg/mL): MIC > 64) | + (“+”: MIC (μg/mL): 64 ≧ MIC > 16)
7 | CCCCCCCCCCCCC(N)C(=O)NC1C(CO)OCC(n2c(S)nc3cc(C(F)(F)F)cc(Cl)c32)C1O (stereo not shown) [Compound 186] | + (“+”: MIC (μg/mL): 64 ≧ MIC > 16) | − (“−”: MIC (μg/mL): MIC > 64) | − (“−”: MIC (μg/mL): MIC > 64) | ++ (“++”: MIC (μg/mL): MIC ≦ 16) | + (“+”: MIC (μg/mL): 64 ≧ MIC > 16)
8 | CCCCCCCCCCCCC(N)C(=O)NC1C(CO)OCC(n2c(N)nc3cc(C(F)(F)F)ccc32)C1O (stereo not shown) [Compound 183] | − (“−”: MIC (μg/mL): MIC > 64) | ++ (“++”: MIC (μg/mL): MIC ≦ 16) | − (“−”: MIC (μg/mL): MIC > 64) | + (“+”: MIC (μg/mL): 64 ≧ MIC > 16) | − (“−”: MIC (μg/mL): MIC > 64)
9 | CCCCCCCCCCCCC(N)C(=O)NC1C(CO)OCC(n2c(O)nc3cc(C(F)(F)F)ccc32)C1O (stereo not shown) [Compound 181] | ++ (“++”: MIC (μg/mL): MIC ≦ 16) | + (“+”: MIC (μg/mL): 64 ≧ MIC > 16) | + (“+”: MIC (μg/mL): 64 ≧ MIC > 16) | + (“+”: MIC (μg/mL): 64 ≧ MIC > 16) | + (“+”: MIC (μg/mL): 64 ≧ MIC > 16)
10 | Nc1ccccc1OC1C(NC(=O)Nc2ccc(Cl)c(C(F)(F)F)c2)COC(CO)C1NC(=O)c1ccc(-c2ccccc2)cc1 (stereo not shown) [Compound 69] | − (“−”: MIC (μg/mL): MIC > 64) | − (“−”: MIC (μg/mL): MIC > 64) | − (“−”: MIC (μg/mL): MIC > 64) | + (“+”: MIC (μg/mL): 64 ≧ MIC > 16) | − (“−”: MIC (μg/mL): MIC > 64)
11 | O=C(Nc1ccc(Cl)c(C(F)(F)F)c1)NC1COC(CO)C(n2c(Nc3ccc(Cl)cc3)nc3cc(C(F)(F)F)cc(Cl)c32)C1O (stereo not shown) [Compound 252] | − (“−”: MIC (μg/mL): MIC > 64) | − (“−”: MIC (μg/mL): MIC > 64) | − (“−”: MIC (μg/mL): MIC > 64) | + (“+”: MIC (μg/mL): 64 ≧ MIC > 16) | + (“+”: MIC (μg/mL): 64 ≧ MIC > 16)
12 | NC(Cc1ccc(-c2ccccc2)cc1)C(=O)NC1C(CO)OCC(n2c(O)nc3cc(C(F)(F)F)cc(Cl)c32)C1O (stereo not shown) [Compound 161] | + (“+”: MIC (μg/mL): 64 ≧ MIC > 16) | − (“−”: MIC (μg/mL): MIC > 64) | − (“−”: MIC (μg/mL): MIC > 64) | + (“+”: MIC (μg/mL): 64 ≧ MIC > 16) | + (“+”: MIC (μg/mL): 64 ≧ MIC > 16)
13 | NC(Cc1ccc(-c2ccccc2)cc1)C(=O)Nc1nc2cc(C(F)(F)F)ccc2n1C1C(CO)OCC(NS(=O)(=O)c2ccc(C(F)(F)F)cc2)C1O (stereo not shown) [Compound 241] | ++ (“++”: MIC (μg/mL): MIC ≦ 16) | ++ (“++”: MIC (μg/mL): MIC ≦ 16) | + (“+”: MIC (μg/mL): 64 ≧ MIC > 16) | ++ (“++”: MIC (μg/mL): MIC ≦ 16) | ++ (“++”: MIC (μg/mL): MIC ≦ 16)
14 | CC(C)(C)c1ccc(CNc2nc3cc(C(F)(F)F)ccc3n2C2C(CO)OCC(NC(=O)Nc3ccc(Cl)c(C(F)(F)F)c3)C2O)cc1 (stereo not shown) [Compound 248] | ++ (“++”: MIC (μg/mL): MIC ≦ 16) | ++ (“++”: MIC (μg/mL): MIC ≦ 16) | ++ (“++”: MIC (μg/mL): MIC ≦ 16) | ++ (“++”: MIC (μg/mL): MIC ≦ 16) | ++ (“++”: MIC (μg/mL): MIC ≦ 16)

From patent publication US7989422B2, “Antibacterial agents” (Alchemia Limited, priority 2005, dated 2011)
